The values that follow come from patent US20120165346A1, “Compounds and their use as BACE inhibitors” (ASTRAZENECA AB, priority 2010, published 2012).

Structures are written as SMILES.

In general, IC50 refers to the concentration that inhibits the measured activity by half. Read a low IC50 as higher potency.

Assay [1] addresses T1, human β-Secretase (AA 1-AA 460), sBACE-Fc (Homo sapiens, UniProt P56817).
T1 construct: soluble part of the human β-Secretase (AA 1-AA 460) was cloned; Fc domain of IgG1; made in house
In words: TR-FRET assay. Conditions: enzyme 2.7 μg/ml, substrate 100 nM, pH4.5, 15 minutes at r.t. The assay is classed as biochemical. How it is done:
The β-secretase enzyme used in the TR-FRET is prepared as follows:
The cDNA for the soluble part of the human β-Secretase (AA 1-AA 460) was cloned using the ASP2-Fc10-1-IRES-GFP-neoK mammalian expression vector. The gene was fused to the Fc domain of IgG1 (affinity tag) and stably cloned into HEK 293 cells.
The enzyme (truncated form) was diluted to 6 μg/mL (stock 1.3 mg/mL) and the substrate (Europium)[…](Qsy7) to 200 nM (stock 120 μM) in reaction buffer (NaAcetate, is chaps, triton x-100, EDTA pH4.5). The robotic systems Biomek FX and Velocity 11 were used for all liquid handling and the enzyme and substrate solutions were kept on ice until they were placed in the robotic system. Enzyme (9 μA) was added to the plate then 1 μA of compound in dimethylsulphoxide was added, mixed and pre-incubated for 10 minutes. Substrate (10 μA) was then added, mixed and the reaction proceeded for 15 minutes at r.t. The reaction was stopped with the addition of Stop solution (7 μl, NaAcetate, pH 9). The fluorescence of the product was measured on a Victor II plate reader with an excitation wavelength of 340 nm and an emission wavelength of 615 nm. The assay was performed in a Costar 384 well round bottom, low volume, non-binding surface plate (Corning #3676). […] The dimethylsulphoxide control, instead of test compound, defined the 100% activity level and 0% activity was defined by wells lacking enzyme (replaced with reaction buffer).

In assay [2] the test system is sAPPβ release, SH-SY5Y cells. In words: sAPPβ release assay. The assay is classed as cell-based. The settings on record: Homo sapiens, compounds incubated 17 h. How it is done: SH-SY5Y cells were cultured in DMEM/F-12 with Glutamax, 10% FCS and 1% non-essential amino acids and cryopreserved and stored at −140° C. at a concentration of 7.5−9.5×10^6 cells per vial. Thaw cells and seed at a conc. of around 10000 cells/well in DMEM/F-12 with Glutamax, 10% FCS and 1% non-essential amino acids to a 384-well tissue culture treated plate, […] cell susp/well. The cell plates were then incubated for 7-24 h at 37° C., 5% CO2. The cell medium was removed, followed by addition of 30 μL compound diluted in DMEM/F-12 with Glutamax, 10% FCS, 1% non-essential amino acids and 1% PeSt to a final conc. of 1% DMSO. The compounds were incubated with the cells for 17 h (overnight) at 37° C., 5% CO2. Meso Scale Discovery (MSD) plates were used for the detection of sAPPβ release. MSD sAPPβ plates were blocked in 1% BSA in Tris wash buffer (40 μL/well) for 1 h on shake at r.t. and washed 1 time in Tris wash buffer (40 μL/well). 20 μL of medium was transferred to the pre-blocked and washed is MSD sAPPβ microplates, and the cell plates were further used in an ATP assay to measure cytotoxicity. The MSD plates were incubated with shaking at r.t. for 2 h and the media discarded. 10 μL detection antibody was added (1 nM) per well followed by incubation with shaking at r.t. for 2 h and then discarded. 40 μL Read Buffer was added per well and the plates were read in a SECTOR Imager.

T1 sequence (P56817 22-460): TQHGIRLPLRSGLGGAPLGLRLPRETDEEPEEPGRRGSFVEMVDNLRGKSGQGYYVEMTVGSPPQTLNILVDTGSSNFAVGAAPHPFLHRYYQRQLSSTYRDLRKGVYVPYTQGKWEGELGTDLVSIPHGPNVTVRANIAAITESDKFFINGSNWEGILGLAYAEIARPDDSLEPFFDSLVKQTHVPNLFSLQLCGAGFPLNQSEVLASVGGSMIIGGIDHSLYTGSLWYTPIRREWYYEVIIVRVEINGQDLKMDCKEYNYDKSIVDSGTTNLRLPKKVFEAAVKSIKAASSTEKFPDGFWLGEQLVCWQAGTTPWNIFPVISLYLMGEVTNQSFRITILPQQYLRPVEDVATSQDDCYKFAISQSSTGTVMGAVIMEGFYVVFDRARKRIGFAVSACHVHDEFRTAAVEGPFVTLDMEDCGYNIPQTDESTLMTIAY

As for `Cn1cc(C2(c3cccc(-c4cncc(C#N)c4)c3)N=C(N)c3c(F)cccc32)cc(C(F)(F)F)c1=O` (centres unmarked) [Example 10, 5-(3-(3-Amino-4-fluoro-1-(1-methyl-6-oxo-5-(trifluoromethyl)-1,6-dihydropyridin-3-yl)-1H-isoindol-1-yl)phenyl)nicotinonitrile], the IC50 in assay [1] amounted to 0.089 µM; in assay [2], 0.02 µM. For `Cc1cc(C2(c3cccc(-c4cncc(C#N)c4)c3)N=C(N)c3c(F)cccc32)cn(C(C)C)c1=O` (centres unmarked) [Example 5, 5-(3-(3-Amino-4-fluoro-1-(1-isopropyl-5-methyl-6-oxo-1,6-dihydropyridin-3-yl)-1H-isoindol-1-yl)phenyl)nicotinonitrile] the same measures were 0.058 µM and 0.01 µM.

For `COc1cncc(-c2cccc(C3(c4cc(C)c(=O)n(C)c4)N=C(N)c4c(F)cccc43)c2)c1` (centres unmarked) [Example 20, 5-(3-amino-4-fluoro-1-(3-(5-methoxypyridin-3-yl)phenyl)-1H-isoindol-1-yl)-1,3-dimethylpyridin-2(1H)-one], the IC50 in assay [1] was 0.031 µM; in assay [2], 0.006 µM. On the same counts, the results for `CCn1cc(C2(c3cccc(-c4cncc(F)c4)c3)N=C(N)c3c(F)cccc32)cc(C(F)F)c1=O` (centres unmarked) [Example 22, 5-(3-Amino-4-fluoro-1-(3-(5-fluoropyridin-3-yl)phenyl)-1H-isoindol-1-yl)-3-(difluoromethyl)-1-ethylpyridin-2(1H)-one] are 0.07 µM and 0.009 µM. As for `CCn1cc([C@]2(c3cccc(-c4cncc(C)c4F)c3)N=C(N)c3c(F)cccc32)cc(C)c1=O` [Example 4, (R)-5-(3-Amino-4-fluoro-1-(3-(4-fluoro-5-methylpyridin-3-yl)phenyl)-1H-isoindol-1-yl)-1-ethyl-3-methylpyridin-2(1H)-one], the IC50 in assay [1] is 0.051 µM; in assay [2], 0.055 µM.

In the case of `Cc1cc(C2(c3cccc(-c4cncc(F)c4)c3)N=C(N)c3c(F)cccc32)cn(C(C)C)c1=O` (centres unmarked) [Example 7, 5-(3-Amino-4-fluoro-1-(3-(5-fluoropyridin-3-yl)phenyl)-1H-isoindol-1-yl)-1-isopropyl-3-methylpyridin-2(1H)-one], the figures for the IC50 in assay [1] and in assay [2] were 0.038 µM and 0.004 µM, respectively. For `Cn1cc(C2(c3cccc(-c4cncnc4)c3)N=C(N)c3c(F)cccc32)cc(C(F)(F)F)c1=O` (centres unmarked) [Example 13, 5-(3-Amino-4-fluoro-1-(3-(pyrimidin-5-yl)phenyl)-1H-isoindol-1-yl)-1-methyl-3-(trifluoromethyl)pyridin-2(1H)-one] the same measures were 0.081 µM and 0.024 µM. On the same counts, the results for `COc1cncc(-c2cccc(C3(c4cc(C(F)(F)F)c(=O)n(C)c4)N=C(N)c4c(F)cccc43)c2)c1` (centres unmarked) [Example 11, 5-(3-Amino-4-fluoro-1-(3-(5-methoxypyridin-3-yl)phenyl)-1H-isoindol-1-yl)-1-methyl-3-(trifluoromethyl)pyridin-2(1H)-one] are 0.054 µM and 0.046 µM. On the same counts, the results for `CC#Cc1cccc(-c2cccc([C@@]3(c4cc(C)c(=O)n(CC)c4)N=C(N)c4c(F)cccc43)c2)n1` [Example 24, (R)-5-(3-Amino-4-fluoro-1-(3-(6-(prop-1-ynyl)pyridin-2-yl)phenyl)-1H-isoindol-1-yl)-1-ethyl-3-methylpyridin-2(1H)-one] are 0.14 µM and 0.022 µM. On to `Cc1cc(C2(c3cccc(-c4cncnc4)c3)N=C(N)c3c(F)cccc32)cn(C)c1=O` (centres unmarked) [Example 14, 5-(3-Amino-4-fluoro-1-(3-(pyrimidin-5-yl)phenyl)-1H-isoindol-1-yl)-1,3-dimethylpyridin-2(1H)-one], for which the results for the IC50 in assay [1] and in assay [2] were 0.058 µM and 0.011 µM, respectively. On the same counts, the results for `Cn1cc(C2(c3cccc(-c4cncc(F)c4)c3)N=C(N)c3c(F)cccc32)cc(C(F)(F)F)c1=O` (centres unmarked) [Example 12, 5-(3-Amino-4-fluoro-1-(3-(5-fluoropyridin-3-yl)phenyl)-1H-isoindol-1-yl)-1-methyl-3-(trifluoromethyl)pyridin-2(1H)-one] are 0.062 µM and 0.008 µM.

Take `CC#Cc1cncc(-c2cc(C3(c4cc(CC)c(=O)n(CC)c4)N=C(N)c4c(F)cccc43)ccn2)c1` (centres unmarked) [Example 16, 5-(3-Amino-4-fluoro-1-(5′-(prop-1-ynyl)-2,3′-bipyridin-4-yl)-1H-isoindol-1-yl)-1,3-diethylpyridin-2(1H)-one]: the figures for the half-maximal inhibitory concentration (IC50) in assay [1] and in assay [2] were 0.059 µM and 0.001 µM, respectively. For `Cc1cc(C2(c3ccnc(-c4cncc(Cl)c4)c3)N=C(N)c3c(F)cccc32)cn(C)c1=O` (centres unmarked) [Example 15, 5-(3-Amino-1-(5′-chloro-2,3′-bipyridin-4-yl)-4-fluoro-1H-isoindol-1-yl)-1,3-dimethylpyridin-2(1H)-one] the same measures were 0.104 µM and 0.014 µM. Compound `CC#Cc1cncc(-c2cc(C3(c4cc(C)c(=O)n(CC)c4)N=C(N)c4c(F)cccc43)ccn2)c1` (single isomer, unassigned) [Example 26a, 5-(3-amino-4-fluoro-1-(5′-(prop-1-ynyl)-2,3′-bipyridin-4-yl)-1H-isoindol-1-yl)-1-ethyl-3-methylpyridin-2(1H)-one] displayed an IC50 in assay [1] of 8.35 µM. Turning to `Cc1cc(C2(c3cccc(-c4cncc(F)c4)c3)N=C(N)c3c(F)cccc32)cn(C)c1=O` (centres unmarked) [Example 19, 5-(3-Amino-4-fluoro-1-(3-(5-fluoropyridin-3-yl)phenyl)-1H-isoindol-1-yl)-1,3-dimethylpyridin-2(1H)-one], the IC50 in assay [1] was 0.061 µM; in assay [2], 0.003 µM. On the same counts, the results for `Cc1cc(C2(c3cccc(-c4cncc(Cl)c4)c3)N=C(N)c3c(F)cccc32)cn(C)c1=O` (centres unmarked) [Example 18, 5-(3-Amino-1-(3-(5-chloropyridin-3-yl)phenyl)-4-fluoro-1H-isoindol-1-yl)-1,3-dimethylpyridin-2(1H)-one] are 0.026 µM and 0.008 µM. Turning to `CC#Cc1cncc(-c2cc(C3(c4cc(C)c(=O)n(CC)c4)N=C(N)c4c(F)cccc43)ccn2)c1` (centres unmarked) [Example 2, 5-(3-Amino-4-fluoro-1-(5′-(prop-1-ynyl)-2,3′-bipyridin-4-yl)-1H-isoindol-1-yl)-1-ethyl-3-methylpyridin-2(1H)-one], the 50% inhibitory concentration (IC50) in assay [1] turned out to be 0.057 µM; in assay [2], 0.002 µM. Take `Cc1cc(C2(c3cccc(-c4cncc(C#N)c4)c3)N=C(N)c3c(F)cccc32)cn(C)c1=O` (centres unmarked) [Example 17, 5-(3-(3-Amino-1-(1,5-dimethyl-6-oxo-1,6-dihydropyridin-3-yl)-4-fluoro-1H-isoindol-1-yl)phenyl)nicotinonitrile]: the IC50 is 0.066 µM in assay [1] and 0.017 µM in assay [2].
